According to US9340556B2, “Antibacterial compounds” (GLAXO GROUP LIMITED, priority 2011, dated 2016):
Counter-ions that a name gives are not always drawn.

Assay: Antimicrobial activity assay: whole-cell broth microdilution MIC (CLSI M7-A7)
Type: cell-based
Details: for at least one strain of one organism listed, serial two-fold dilutions 0.064 to 64 μg/ml, in the presence of 20 uM human apo-Transferrin, tested in at least one exemplified salt or free base form, read-out: MIC (minimum inhibitory concentration)
Method: Antimicrobial Activity Assay
Whole-cell antimicrobial activity was determined by broth microdilution using the Clinical and Laboratory Standards Institute (CLSI) recommended procedure, Document M7-A7, “Methods for Dilution Susceptibility Tests for Bacteria that Grow Aerobically”. In some cases, broth microdilution MICs were determined using IsoSensitest broth (Oxoid) in place of CLSI recommended cation adjusted Mueller-Hinton broth. The compounds were tested in serial two-fold dilutions ranging from 0.064 to 64 μg/ml in the presence of 20 uM human apo-Transferrin (Sigma T-1147).
Compounds were evaluated against Gram-negative organisms selected from Escherichia coli, Pseudomonas aeruginosa, Proteus mirabilis, Enterobacter cloacae, Enterobacter aerogenes, Klebsiella pneumoniae, Stenotrophomonas maltophilia, Acinetobacter baumanii, Serratia marascens, Citrobacter freundii, and Klebsiella oxytoca.
The minimum inhibitory concentration (MIC) was determined as the lowest concentration of compound that inhibited visible growth. A mirror reader was used to assist in determining the MIC endpoint.
Each of the listed Examples 1 to 56 and 59 to 61 identified in the present application, were tested in at least one exemplified salt or free base form.

Cn1cc(O)c(=O)c2cc(C[N+]3(CC4=C(C(=O)[O-])N5C(=O)[C@@H](NC(=O)/C(=N\O[C@@H](CC(=O)O)C(=O)O)c6csc(N)n6)[C@H]5SC4)CCCC3)ccc21 [Example 5, (6R,7R)-7-((Z)-2-(2-aminothiazol-4-yl)-2-(((S)-1,2-dicarboxyethoxy)imino)acetamido)-3-((1-((3-hydroxy-1-methyl-4-oxo-1,4-dihydroquinolin-6-yl)methyl)pyrrolidin-1-ium-1-yl)methyl)-8-oxo-5-thia-1-azabicyclo[4.2.0]oct-2-ene-2-carboxylate, 3 Sodium salt]
MIC: ≤ 8 µg/mL
